US11026896B2, “Transdermal penetrant formulations containing cannabidiol” (AMPERSAND BIOPHARMACEUTICALS, INC., priority 2019, dated 2021)

Assay: Plasma pharmacokinetic profile of CBD after a single topical dose to CD-1 mice (In-life Study 1901002-01, LC-MS/MS)
Format: in vivo
Settings: single topical dose 0.1 mL, mouse plasma
Protocol: The objective of this study was to determine the plasma pharmacokinetic (PK) profile of test article cannabidiol (CBD) following the administration of a single topical dose to CD-1 mice. The work was conducted at Alliance Pharma with a title of In-life Study 1901002-01. Although the in-life study was not intended to be conducted in compliance with Good Laboratory Practice regulations, the study was conducted in accordance with Alliance Pharma's IACUC (Institutional Animal Care and Use Committee) Protocol No. 2016-02_V4 and Alliance Pharma's standard operating procedures (SOPs). In addition, the pharmacokinetic analyses of mouse plasma samples were conducted in accordance with Alliance Pharma SOPs.
A total of 72 mouse (CD-1) plasma samples were transferred from Alliance Pharma's in-life facility located in Malvern, Pa. to the Bioanalytical department for pharmacokinetic analysis. The concentration of CBD in these 72 plasma samples was measured using high-performance liquid chromatography (HPLC) with tandem mass spectrometry (MS/MS) detection.
In-life Study Design: In-life Study 1901002-01 was performed at the in-life testing facility at Alliance Pharma. Four (4) groups of 21 CD-1 mice each (84 total) were administered a single topical dose of CBD. Mice in Group 1 were administered Formulation A at a strength of 2.5% CBD. Mice in Group 2 were administered Formulation B at the same strength of 2.5% CBD. Mice in Group 3 were administered Formulation C at a strength of 5% CBD, and mice in Group 4 were administered Formulation C at a strength of 2.5% CBD. The treatment scheme is summarized below.
Animals in each group received topical administration of either 2.5% o 5% CBD using a 1 ml syringe to draw up exactly 100 μl. Compound was applied in the shaved area only. Each group received a different formulation of the compound.
Sample Collection, Processing, and Shipment: Blood samples were collected at the in-life facility at the following time points: 0.25, 0.5, 1, 2, 4, and 8 hours post-dose from 72 mice in Groups 1 through 4 (18 from each treatment group). Target volume was less than or equal to 0.2 ml. The blood was collected via trunk puncture into tubes using K2 EDTA as an anticoagulant. The collected blood samples were kept on wet ice before being centrifuged. Blood samples were centrifuged as soon as possible after blood collection at approximately 10,000 rpm for about 10 minutes to separate the plasma. Approximately 0.2 mL of each plasma sample was transferred into labeled Eppendorf tubes. Each tube was stored in a freezer set to −20° C. or lower. No blood was collected from 12 (3 from each treatment group) of the 84 mice enrolled in the in-life study; thus, the total number of plasma samples that were transferred to the Alliance Pharma Bioanalytical department for bioanalysis was 72.
Assay Procedures: For analysis of CBD, a 25-μL aliquot of each study sample was mixed with 25 μL of acetonitrile/water (50:50, v/v). Samples were then extracted by protein precipitation using acetonitrile containing the internal standard, tolbutamide (25 ng/mL). A portion of the supernatant was diluted in deionized water and used for the analysis of CBD.
Data Acquisition and Processing: The LC-MS/MS data acquisition was performed on a Shimadzu Nexera X2 LC system coupled with an AB SCIEX Triple Quad 5500 mass spectrometer. Chromatograms were integrated using Analyst 1.6.2 software. A weighted (1/x^2, x=concentration) linear regression was used to generate the calibration curve for CBD. The concentration of CBD was calculated using the peak area ratio of analyte to internal standard based on the standard curve. Mean, standard deviation, precision, accuracy, and assay variability were calculated using Microsoft Excel software.
Pharmacokinetic Analysis: Software—The PK parameters were determined using a non-compartmental analysis tool, namely, Phoenix WnNonlin 6.3 software (Pharsight Corporation, St. Louis, Mo.). […]

[1] = Group 1, AEM.CBD.006 Formulation A 2.5% CBD, mean dose 78.69 mg/kg
[2] = Group 2, AEM.CBD.007 Formulation B 2.5% CBD, mean dose 76.61 mg/kg
[3] = Group 3, KBM.CBD.010 Formulation C 5% CBD, mean dose 155.24 mg/kg
[4] = Group 4, KBM.CBD.011 Formulation C 2.5% CBD, mean dose 75.76 mg/kg

`C=C(C)[C@@H]1CCC(C)=C[C@H]1c1c(O)cc(CCCCC)cc1O` [Cannabidiol] gave an AUCinf [1] of 1865 ng·h/mL, an AUClast [1] of 1758 ng·h/mL and a Cmax [1] of 427.149 ng/mL. For the same compound, the t1/2 [1] was 1.78 h, the tmax [1] was 2.00 h and the AUCinf [2] was 1647 ng·h/mL. For the same compound, the AUClast [2] was 1563 ng·h/mL, the Cmax [2] was 360.351 ng/mL and the t1/2 [2] was 1.70 h. For the same compound, the tmax [2] was 2.00 h, the AUCinf [3] was 3533 ng·h/mL and the AUClast [3] was 3067 ng·h/mL. It also gave a Cmax [3] of 602.168 ng/mL, a tmax [3] of 4.00 h and an AUCinf [4] of 1514 ng·h/mL. The AUClast [4] was 1410 ng·h/mL, the Cmax [4] was 331.560 ng/mL and the t1/2 [4] was 1.92 h. For the same compound, the tmax [4] was 1.00 h.
